Data from patent publication US20060210520A1, “Macadamia lipid based surfactants and derivatives and process for preparing same” (Finetex, Inc., priority 2005, published 2006).

Experiment: Analytical results of the Macadamia esters (Table I)
Format: physicochemical
Procedure: An analysis of the esters was conducted as to appearance, color, surface tension, spreading coefficient, freezing point, percentage of water, refractive index, and specific gravity.

Row | Spreading Coeffecient (° C.) | Viscosity (CPS) | Interfacial Tension (25° C.) | Surface Tension (25° C.) | Substance
1 | 31.50 | 100 | 8.50 | 32.00 | C12-15 Pareth-7 Macadamiate
2 | 32.15 | 120 | 8.35 | 32.50 | Ceteareth-4 Macadamiate
3 | 32.75 | 40 | 7.75 | 31.5 | Isostearyl Macadamiate
4 | 34.00 | 80 | 7.00 | 31.0 | PPG-3 Myristyl Ether Macadamiate
